experiment: (§1) The drug is tested on Z-025 corresponding to rabbit gut metagenome with ENA study accession number: PRJEB37062 and ENA sample accession number: ERS12561824 for biotransformation under anaerobic condition. The drug concentrations were measured over 9 timepoints collected between 0 and 24 hours of incubation by liquid-chromatography-coupled mass spectrometry (LC–MS); conditions: 2 µM
Also: call rule not given here.

Bacterial Biotransformation	Compound
Compound NOT metabolized	CC(C)(C)NC[C@H](O)COc1nsnc1N1CCOCC1.O=C(O)/C=C\C(=O)O [TIMOLOL MALEATE]
Compound NOT metabolized	CC[C@@]1(O)C(=O)OCc2c1cc1n(c2=O)Cc2cc3c(CN(C)C)c(O)ccc3nc2-1 [TOPOTECAN]

experiment: as §1, with “Z-023” for “Z-025”, “to” for “to rabbit gut”, “ERS12561822” for “ERS12561824”; conditions: 2 µM

Bacterial Biotransformation	Compound
Compound NOT metabolized	CC(C)(C)NC[C@H](O)COc1nsnc1N1CCOCC1.O=C(O)/C=C\C(=O)O [TIMOLOL MALEATE]
Compound NOT metabolized	CC[C@@]1(O)C(=O)OCc2c1cc1n(c2=O)Cc2cc3c(CN(C)C)c(O)ccc3nc2-1 [TOPOTECAN]

experiment: as §1, with “Z-022” for “Z-025”, “mouse” for “rabbit”, “ERS12561821” for “ERS12561824”; conditions: 2 µM

Bacterial Biotransformation	Compound
Compound NOT metabolized	CC(C)(C)NC[C@H](O)COc1nsnc1N1CCOCC1.O=C(O)/C=C\C(=O)O [TIMOLOL MALEATE]
Compound NOT metabolized	CC[C@@]1(O)C(=O)OCc2c1cc1n(c2=O)Cc2cc3c(CN(C)C)c(O)ccc3nc2-1 [TOPOTECAN]

experiment: as §1, with “Z-013” for “Z-025”, “ERS12561813” for “ERS12561824”; conditions: 2 µM

Bacterial Biotransformation	Compound
Compound NOT metabolized	CC(C)(C)NC[C@H](O)COc1nsnc1N1CCOCC1.O=C(O)/C=C\C(=O)O [TIMOLOL MALEATE]
Compound NOT metabolized	CC[C@@]1(O)C(=O)OCc2c1cc1n(c2=O)Cc2cc3c(CN(C)C)c(O)ccc3nc2-1 [TOPOTECAN]

experiment: as §1, with “Z-009” for “Z-025”, “pig” for “rabbit”, “ERS12561809” for “ERS12561824”; conditions: 2 µM

Bacterial Biotransformation	Compound
Compound NOT metabolized	CC(C)(C)NC[C@H](O)COc1nsnc1N1CCOCC1.O=C(O)/C=C\C(=O)O [TIMOLOL MALEATE]
Compound NOT metabolized	CC[C@@]1(O)C(=O)OCc2c1cc1n(c2=O)Cc2cc3c(CN(C)C)c(O)ccc3nc2-1 [TOPOTECAN]

experiment: as §1, with “Z-007” for “Z-025”, “rat” for “rabbit”, “ERS12561807” for “ERS12561824”; conditions: 2 µM

Bacterial Biotransformation	Compound
Compound NOT metabolized	CC(C)(C)NC[C@H](O)COc1nsnc1N1CCOCC1.O=C(O)/C=C\C(=O)O [TIMOLOL MALEATE]
Compound NOT metabolized	CC[C@@]1(O)C(=O)OCc2c1cc1n(c2=O)Cc2cc3c(CN(C)C)c(O)ccc3nc2-1 [TOPOTECAN]

experiment: as §1, with “Z-006” for “Z-025”, “mouse” for “rabbit”, “ERS12561806” for “ERS12561824”; conditions: 2 µM

Bacterial Biotransformation	Compound
Compound NOT metabolized	CC(C)(C)NC[C@H](O)COc1nsnc1N1CCOCC1.O=C(O)/C=C\C(=O)O [TIMOLOL MALEATE]
Compound NOT metabolized	CC[C@@]1(O)C(=O)OCc2c1cc1n(c2=O)Cc2cc3c(CN(C)C)c(O)ccc3nc2-1 [TOPOTECAN]

experiment: as §1, with “Z-004” for “Z-025”, “to” for “to rabbit gut”, “ERS12561804” for “ERS12561824”; conditions: 2 µM

Bacterial Biotransformation	Compound
Compound NOT metabolized	CC(C)(C)NC[C@H](O)COc1nsnc1N1CCOCC1.O=C(O)/C=C\C(=O)O [TIMOLOL MALEATE]
Compound NOT metabolized	CC[C@@]1(O)C(=O)OCc2c1cc1n(c2=O)Cc2cc3c(CN(C)C)c(O)ccc3nc2-1 [TOPOTECAN]

experiment: as §1, with “WLS-350” for “Z-025”, “human” for “rabbit”, “ERS12561789” for “ERS12561824”; conditions: 2 µM

Bacterial Biotransformation	Compound
Compound NOT metabolized	CC(C)(C)NC[C@H](O)COc1nsnc1N1CCOCC1.O=C(O)/C=C\C(=O)O [TIMOLOL MALEATE]
Compound NOT metabolized	CC[C@@]1(O)C(=O)OCc2c1cc1n(c2=O)Cc2cc3c(CN(C)C)c(O)ccc3nc2-1 [TOPOTECAN]

experiment: as §1, with “WLS-073” for “Z-025”, “human” for “rabbit”, “ERS12561749” for “ERS12561824”; conditions: 2 µM

Bacterial Biotransformation	Compound
Compound NOT metabolized	CC(C)(C)NC[C@H](O)COc1nsnc1N1CCOCC1.O=C(O)/C=C\C(=O)O [TIMOLOL MALEATE]
Compound NOT metabolized	CC[C@@]1(O)C(=O)OCc2c1cc1n(c2=O)Cc2cc3c(CN(C)C)c(O)ccc3nc2-1 [TOPOTECAN]

experiment: as §1, with “WLS-052” for “Z-025”, “human” for “rabbit”, “ERS12561747” for “ERS12561824”; conditions: 2 µM

Bacterial Biotransformation	Compound
Compound NOT metabolized	CC(C)(C)NC[C@H](O)COc1nsnc1N1CCOCC1.O=C(O)/C=C\C(=O)O [TIMOLOL MALEATE]
Compound NOT metabolized	CC[C@@]1(O)C(=O)OCc2c1cc1n(c2=O)Cc2cc3c(CN(C)C)c(O)ccc3nc2-1 [TOPOTECAN]

experiment: as §1, with “WLS-010” for “Z-025”, “human” for “rabbit”, “ERS12561743” for “ERS12561824”; conditions: 2 µM

Bacterial Biotransformation	Compound
Compound NOT metabolized	CC(C)(C)NC[C@H](O)COc1nsnc1N1CCOCC1.O=C(O)/C=C\C(=O)O [TIMOLOL MALEATE]
Compound NOT metabolized	CC[C@@]1(O)C(=O)OCc2c1cc1n(c2=O)Cc2cc3c(CN(C)C)c(O)ccc3nc2-1 [TOPOTECAN]

conditions: human gut metagenome, 24 h, 2 µM

Bacterial Biotransformation	Compound
Compound NOT metabolized	CC(C)(C)NC[C@H](O)COc1nsnc1N1CCOCC1.O=C(O)/C=C\C(=O)O [TIMOLOL MALEATE]
Compound NOT metabolized	CC[C@@]1(O)C(=O)OCc2c1cc1n(c2=O)Cc2cc3c(CN(C)C)c(O)ccc3nc2-1 [TOPOTECAN]

conditions: human gut metagenome, 24 h, 2 µM; remark: another data set of the same source

Bacterial Biotransformation	Compound
Compound NOT metabolized	CC(C)(C)NC[C@H](O)COc1nsnc1N1CCOCC1.O=C(O)/C=C\C(=O)O [TIMOLOL MALEATE]
Compound NOT metabolized	CC[C@@]1(O)C(=O)OCc2c1cc1n(c2=O)Cc2cc3c(CN(C)C)c(O)ccc3nc2-1 [TOPOTECAN]

conditions: human gut metagenome, 24 h, 2 µM; remark: another data set of the same source

Bacterial Biotransformation	Compound
Compound NOT metabolized	CC(C)(C)NC[C@H](O)COc1nsnc1N1CCOCC1.O=C(O)/C=C\C(=O)O [TIMOLOL MALEATE]
Compound NOT metabolized	CC[C@@]1(O)C(=O)OCc2c1cc1n(c2=O)Cc2cc3c(CN(C)C)c(O)ccc3nc2-1 [TOPOTECAN]

conditions: human gut metagenome, 24 h, 2 µM; remark: another data set of the same source

Bacterial Biotransformation	Compound
Compound NOT metabolized	CC(C)(C)NC[C@H](O)COc1nsnc1N1CCOCC1.O=C(O)/C=C\C(=O)O [TIMOLOL MALEATE]
Compound NOT metabolized	CC[C@@]1(O)C(=O)OCc2c1cc1n(c2=O)Cc2cc3c(CN(C)C)c(O)ccc3nc2-1 [TOPOTECAN]

conditions: human gut metagenome, 24 h, 2 µM; remark: another data set of the same source

Bacterial Biotransformation	Compound
Compound NOT metabolized	CC(C)(C)NC[C@H](O)COc1nsnc1N1CCOCC1.O=C(O)/C=C\C(=O)O [TIMOLOL MALEATE]
Compound NOT metabolized	CC[C@@]1(O)C(=O)OCc2c1cc1n(c2=O)Cc2cc3c(CN(C)C)c(O)ccc3nc2-1 [TOPOTECAN]

conditions: human gut metagenome, 24 h, 2 µM; remark: another data set of the same source

Bacterial Biotransformation	Compound
Compound NOT metabolized	CC(C)(C)NC[C@H](O)COc1nsnc1N1CCOCC1.O=C(O)/C=C\C(=O)O [TIMOLOL MALEATE]
Compound NOT metabolized	CC[C@@]1(O)C(=O)OCc2c1cc1n(c2=O)Cc2cc3c(CN(C)C)c(O)ccc3nc2-1 [TOPOTECAN]

conditions: human gut metagenome, 24 h, 2 µM; remark: another data set of the same source

Bacterial Biotransformation	Compound
Compound NOT metabolized	CC(C)(C)NC[C@H](O)COc1nsnc1N1CCOCC1.O=C(O)/C=C\C(=O)O [TIMOLOL MALEATE]
Compound NOT metabolized	CC[C@@]1(O)C(=O)OCc2c1cc1n(c2=O)Cc2cc3c(CN(C)C)c(O)ccc3nc2-1 [TOPOTECAN]

conditions: human gut metagenome, 24 h, 2 µM; remark: another data set of the same source

Bacterial Biotransformation	Compound
Compound NOT metabolized	CC(C)(C)NC[C@H](O)COc1nsnc1N1CCOCC1.O=C(O)/C=C\C(=O)O [TIMOLOL MALEATE]
Compound NOT metabolized	CC[C@@]1(O)C(=O)OCc2c1cc1n(c2=O)Cc2cc3c(CN(C)C)c(O)ccc3nc2-1 [TOPOTECAN]

Reference: ChEMBL document CHEMBL5724914, “Linking interpersonal differences in gut microbiota composition and drug biotransformation activity” (2024)
